A word on the IC50: it is the concentration at which inhibition is half-maximal.

Entries after “also recorded” stand apart in the source; their conditions may differ. Marks after values point to notes of the source that are not given here.

Assay [1] concerns BPH cells. As to the kind of experiment: BPH cell proliferation assay. Type of assay: cell-based, human. The conditions noted are these: 48 h; for BPH cell proliferation increased by stimulus: T 10 nM or GF 10 ng/ml; for effect on DHT-stimulated BPH cell proliferation: DHT 10 nM; for effect on DHT-stimulated BPH cell proliferation / effect on T-stimulated BPH cell proliferation: Compound A 1 nM, F 1 nM, Cyp 100 nM; for effect on T-stimulated BPH cell proliferation: T 10 nM. The protocol:
(§1) Human BPH cells, prepared, maintained and used as previously described in Crescioli C, et al. Journal of Clinical and Endocrinology Metabolism (2000) 85 p 2576-2583, were obtained from prostate tissues derived from 5 patients, who underwent suprapubic adenomectomy for BPH, after informed consent and approval by the Local Ethical Committee.
For all cell proliferation assay, 4×10^4 BPH cells were seeded onto 12-well plates in their growth medium, starved in red- and serum-free medium containing 0.1% BSA for 24 h, and then treated with specific stimuli for 48 h. Cells in phenol red- and serum-free medium containing 0.1% BSA were used as controls. Thereafter, cells were trypsinized, and each experimental point was derived from hemocytometer counting, averaging at least six different fields for each well, as previously reported (see Crescioli C, et al. Journal of Clinical and Endocrinology Metabolism (2000) 85 p 2576-2583). […] Growth assays were also carried out using a fixed concentration of androgens (10 nM) with or without Compound A (1 nM, 10 nM) or the anti-androgens finasteride (F, 1 nM) and cyproterone acetate (Cyp, 100 nM). Growth assays were also performed using a fixed concentration of T (10 nM) or GFs (10 ng/ml) with or without Compound A (10 nM). In the same experiment, each experimental point was repeated in triplicate or quadruplicate and experiments were performed 3 times. Results are expressed as % variation (mean±SEM) over the maximal T or GF-induced stimulation.

The target of the next assay is T1, AR (Homo sapiens, UniProt P10275).
T1 sequence (P10275 1-920): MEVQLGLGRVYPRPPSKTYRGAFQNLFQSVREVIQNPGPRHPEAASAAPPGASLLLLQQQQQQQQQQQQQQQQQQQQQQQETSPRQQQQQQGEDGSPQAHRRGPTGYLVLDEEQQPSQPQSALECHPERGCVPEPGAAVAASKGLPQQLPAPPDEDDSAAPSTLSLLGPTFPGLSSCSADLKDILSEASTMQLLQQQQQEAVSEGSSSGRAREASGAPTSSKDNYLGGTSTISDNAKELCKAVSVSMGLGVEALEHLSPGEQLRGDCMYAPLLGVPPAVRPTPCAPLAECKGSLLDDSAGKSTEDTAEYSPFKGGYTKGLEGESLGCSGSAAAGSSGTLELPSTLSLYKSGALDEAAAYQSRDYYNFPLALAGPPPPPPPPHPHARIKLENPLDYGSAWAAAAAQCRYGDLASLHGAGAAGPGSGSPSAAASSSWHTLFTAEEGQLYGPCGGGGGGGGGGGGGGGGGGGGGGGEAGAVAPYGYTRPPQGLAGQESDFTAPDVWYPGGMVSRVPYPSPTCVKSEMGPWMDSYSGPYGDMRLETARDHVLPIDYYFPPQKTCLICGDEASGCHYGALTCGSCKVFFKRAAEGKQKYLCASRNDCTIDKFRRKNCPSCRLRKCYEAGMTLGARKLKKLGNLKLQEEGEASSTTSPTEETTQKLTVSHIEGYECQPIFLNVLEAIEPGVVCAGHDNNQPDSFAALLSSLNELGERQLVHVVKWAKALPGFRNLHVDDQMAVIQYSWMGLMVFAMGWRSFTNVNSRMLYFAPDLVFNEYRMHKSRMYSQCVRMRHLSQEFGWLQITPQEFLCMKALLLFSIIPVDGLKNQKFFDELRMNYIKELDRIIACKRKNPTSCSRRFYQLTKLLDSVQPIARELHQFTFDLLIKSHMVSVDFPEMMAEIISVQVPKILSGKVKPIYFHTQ
As to the kind of experiment: [3H]R1881 binding assay on cytosol fractions of BPH fragments. Set-up: from tissue; host or cells: human BPH prostatic tissue, cytosol fraction. The protocol:
Prostatic tissues for binding assay were obtained from patients who underwent suprapubic adenomectomy for BPH. No pharmacological treatment was performed in the 3 months preceding surgery. After surgery, the tissues were immediately placed in liquid nitrogen and stored at −80° C. until processing.
Protein content was determined by the known method of Bradford, using BSA as a standard.

The subject of assay [2] is BPH cells. The assay can be described thus: In situ end labeling (ISEL) of apoptotic BPH cells. Type of assay: cell-based, human. Conditions: for change in percentage of apoptotic nuclei vs untreated cells: 48 h, Compound A 10 nM, T 10 nM, GFs 10 ng/ml. Here is the method: as §1
ISEL was performed onto BPH cells using Apop Tag in situ apoptosis detection kit peroxydase following the manufacturer's instruction. Cells were incubated with T (10 nM), KGF (10 ng/ml) or Des(1-3)IGF-I (10 ng/ml) with or without Compound A (10 nM). The percentage of apoptotic cells (the number of stained cells divided by the total number of cells) was calculated in at least five separate fields per slide in five different slides. Results are expressed as mean±SEM from three separate experiments.

The target in another assay is T2, 5α reductase type 1 (Homo sapiens, UniProt P18405).
T2 construct: host or cells: CHO 1827
T2 sequence (P18405 1-259): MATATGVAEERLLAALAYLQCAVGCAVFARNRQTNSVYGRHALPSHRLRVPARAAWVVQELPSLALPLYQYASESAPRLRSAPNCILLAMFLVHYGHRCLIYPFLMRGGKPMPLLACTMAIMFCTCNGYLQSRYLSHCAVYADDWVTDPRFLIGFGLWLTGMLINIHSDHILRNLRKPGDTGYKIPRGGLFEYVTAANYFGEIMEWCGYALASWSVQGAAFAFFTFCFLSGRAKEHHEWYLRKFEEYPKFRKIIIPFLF
The assay can be described thus: 5α reductase inhibition test in CHO 1827 cells. Type of assay: cell-based. Conditions: CHO cells transfected with type 1, n=3. Here is the method:
(§2) CHO-1827 and CHO-1829 cells, transfected with 5α reductase type 1 (5αR-1) or type 2 (5αR-2), respectively (see Steers W. Urology (2001) 58 p 17-24), were maintained in Ham's F12 medium supplemented with 5% FCS.
(§3) 5α reductase inhibition assay was performed using CHO 1827 cells, transfected with 5αR-1, or CHO 1829 cells, transfected with 5αR-2, as described (see Guarna A, et al. Journal of Medicinal Chemistry (2000) 43 3718-3735.). Compound A was added in a concentration range from 10^−9 to 10^−5 M, using finasteride as a control inhibitor in each experiment.

Another assay has as its target T3, 5α reductase type 2 (Homo sapiens, UniProt P31213).
T3 construct: host or cells: CHO 1829
T3 sequence (P31213 1-254): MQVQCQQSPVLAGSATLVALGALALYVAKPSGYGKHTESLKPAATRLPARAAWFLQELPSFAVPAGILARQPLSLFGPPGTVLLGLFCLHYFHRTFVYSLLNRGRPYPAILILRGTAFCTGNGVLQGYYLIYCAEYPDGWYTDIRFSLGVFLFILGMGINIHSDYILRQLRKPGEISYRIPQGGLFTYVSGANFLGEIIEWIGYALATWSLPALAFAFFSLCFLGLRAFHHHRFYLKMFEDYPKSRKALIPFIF
The assay can be described thus: 5α reductase inhibition test in CHO 1829 cells. Type of assay: cell-based. The conditions noted are these: CHO cells transfected with type 2, n=3. The protocol: as §2, §3

The test system of a further assay is rat ventral prostate. As to the kind of experiment: Clusterin expression (Northern, immunohistochemistry) and TUNEL in rat ventral prostate. Conditions: orchidectomized T-supplemented rats; Compound A 300 and 100 μg/Kg, F 40 mg/Kg. The format is in vivo. The protocol: Total RNA was extracted using RNAFast from Molecular System (San Diego, Calif.). Blotting, labelling, hybridization conditions and probes (rat clusterin 1.5 Kb full-length cDNA and GAPDH 1.2 Kb full-length cDNA) were performed according to the reported procedures (Bettuzzi et al, Biochemical Journal, (1989), 257, p 293-296 and Marinelli et al, Biochemistry and Cell Biology, (1994), 72, p 515-521). Quantitation of the autoradiograms was obtained by densitometric scanning using an LKB Ultrascan XL densitometer.
All the cryostatic sections obtained from controls and treated rats were processed in parallel as previously described (Astancolle et al, Journal of Endocrinology, (2000), 167, p 197-204). For every experimental condition, 3 alternate sections from 3 different rat prostates were examined. […] Counterstaining was performed with haematoxylin, and cover slips were mounted with Eukitt (O. Kindler GmbH & Co, Germany). Digital high-magnification colour images were acquired by a CCD camera through the microscope.
DNA fragmentation in prostate cryostatic sections, assessed by terminal deoxynucleotidyl transferase (TdT)-mediated dUTP nick end-labelling (TUNEL), was performed using the In Situ Cell Death Detection Kit (POD, Roche) as recommended by the manufacturer. TUNEL positive apoptotic nuclei were documented by digital high-magnification colour images acquired by a CCD camera through the microscope. Counterstaining was performed with eosin, and cover slips were mounted with Eukitt (O Kindler GmbH & Co, Germany).

On to `C=C1/C(=C\C=C2/CCC[C@]3(C)[C@@H]([C@H](C)CCCC(C)(C)O)CC[C@@H]23)C[C@@H](O)C[C@@H]1O` [calcitriol, 1,25-dihydroxyvitamin D3, reference compound], for which the 50% inhibitory concentration (IC50) in the assay with BPH cells [1] (Homo sapiens, read-out: −log IC50, inhibition of BPH cell growth (converted)) is 0.0631 nM. The “maximal inhibition (Imax) of BPH cell growth” value in the assay with BPH cells [1] (unstimulated BPH cells, Imax shared by both secosteroids) was 43±1%.

As for `C[C@]1(O)CC[C@H]2[C@@H]3CCC4=CC(=O)CCC4=C3C=C[C@@]21C` [Compound R1881, reference compound], the “competition for [3H]-R1881 binding” value on AR is reported as “completely displaced”.

Consider `C[C@]12CC[C@H]3[C@@H](CCC4=CC(=O)CC[C@@]43C)[C@@H]1CC[C@@H]2O` [T, testosterone, reference compound], for which the “BPH cell proliferation increased by stimulus” value with BPH cells [1] worked out at 156±8%. Moreover, the “change in percentage of apoptotic nuclei vs untreated cells” value in the assay with BPH cells [2] is −27%.

Regarding `CC(C)(C)NC(=O)[C@H]1CC[C@H]2[C@@H]3CC[C@H]4NC(=O)C=C[C@]4(C)[C@H]3CC[C@]12C` [finasteride, 17β-(N,t-butyl)carbamoyl-4-aza-5α-androst-1-en-3-one, reference compound], in the assay with BPH cells [1], the “effect on DHT-stimulated BPH cell proliferation” value is reported as “effective only against T” and the “effect on T-stimulated BPH cell proliferation” value is “antagonized only T-induced cell growth; also recorded: effective only against T”. In addition, the IC50 against 5α reductase type 1 is 659 ± 100 nM. The same molecule came in with a 50% inhibitory concentration (IC50) on 5α reductase type 2 of 53.7 ± 11 nM. The “clusterin mRNA expression in ventral prostate (Northern)” value in the assay with rat ventral prostate was “partially blunted the T-induced down-regulation of clusterin gene expression”.

As for `CC(=O)O[C@]1(C(C)=O)CC[C@H]2[C@@H]3C=C(Cl)C4=CC(=O)[C@@H]5C[C@@H]5[C@]4(C)[C@H]3CC[C@@]21C` [cyproterone acetate, reference compound], in the assay on BPH cells [1], the “effect on DHT-stimulated BPH cell proliferation” value was “significantly blocked” and the “effect on T-stimulated BPH cell proliferation” value is “significantly blocked”.

B1: KGF: Keratinocyte growth factor from Pepro Tech EC (protein, UniProt P21781 32-194, looked up)
Fibroblast growth factor 7: CNDMTPEQMATNVNCSSPERHTRSYDYMEGGDIRVRRLFCRTQWYLRIDKRGKVKGTQEMKNNYNIMEIRTVAVGIVAIKGVESEFYLAMNKEGKLYAKKECNEDCNFKELILENHYNTYASAKWTHNGGEMFVALNQKGIPVRGKKTKKEQKTAHFLPMAIT
Turning to B1, in the assay with BPH cells [1], the “BPH cell proliferation increased by stimulus” value came to 183±5%. The “change in percentage of apoptotic nuclei vs untreated cells” value in the assay on BPH cells [2] is given as −54%. Besides, the “Apoptotic index (%)” value in the assay on BPH cells [2] (GF 10 ng/ml or T 10 nM alone, ISEL) is 8.5 ± 0.42^a %.

Source of the values: patent US7332482B2, “Method for treating benign prostatic hyperplasia” (BioXell S.p.A., priority 2003, dated 2008).
